Tests used:
PKC [1] = assay: Inhibition of PKC activity; assay type: biochemical; details: relative to tamoxifen
[2] = Therapeutic index comparison; details: as compared to divalproex sodium
PKC [3] = details: cited from earlier work
[4] = in human; cited from earlier work

Compound | potency in inhibiting the PKC activity compared to tamoxifen (PKC [1]) | therapeutic index [2] | PKC inhibition (PKC [3]) | antimanic properties [4]
CC/C(=C(\c1ccc(O)cc1)c1ccc(OCCNC)cc1)c1ccccc1.O=C(O)CC(O)(CC(=O)O)C(=O)O [Endoxifen, (Z)-1-(4-Hydroxyphenyl)-1-{4-[2-(monomethylamino)ethoxy]phenyl}-2-phenyl-1-butene citrate] | four-fold higher potency | broad therapeutic index |  | 
CC/C(=C(\c1ccccc1)c1ccc(OCCN(C)C)cc1)c1ccccc1 [Tamoxifen] |  |  | known to inhibit PKC | demonstrate antimanic properties in human
